Among the data in ChEMBL document CHEMBL4257221, “Peptides comprising non-natural amino acids and methods of making and using the same” (2016) are EC50 values, retold here.

Numbered stars: 1 amine (or outer) side, 2 acyl side, 3 side chain; on linkers, the order of the positions; unused ones are H or OH. Square brackets hold non-standard residues; d marks the D form. Peptide text beside a SMILES is read from it. ξ: configuration not given here. X1 = O=C([C@H]1CCC[C@@H]1N[*:1])[*:2]; X2 = O=C([C@H]1CNC[C@@H]1N[*:1])[*:2]; ξβ3hY = NC(CC(=O)O)Cc1ccc(O)cc1; β3hN = NC(=O)C[C@H](N)CC(=O)O; ξβ3hR = N=C(N)NCCCC(N)CC(=O)O; β3hV = CC(C)[C@H](N)CC(=O)O; ξβ3hL = CC(C)CC(N)CC(=O)O; ξβ3hK = NCCCCC(N)CC(=O)O; ξβ3hV = CC(C)C(N)CC(=O)O; βAla = NCCC(=O)O

The target in assay [1] is T1, Vasoactive intestinal polypeptide receptor 2 (Homo sapiens, UniProt P41587).
T1 sequence (P41587 whole entry): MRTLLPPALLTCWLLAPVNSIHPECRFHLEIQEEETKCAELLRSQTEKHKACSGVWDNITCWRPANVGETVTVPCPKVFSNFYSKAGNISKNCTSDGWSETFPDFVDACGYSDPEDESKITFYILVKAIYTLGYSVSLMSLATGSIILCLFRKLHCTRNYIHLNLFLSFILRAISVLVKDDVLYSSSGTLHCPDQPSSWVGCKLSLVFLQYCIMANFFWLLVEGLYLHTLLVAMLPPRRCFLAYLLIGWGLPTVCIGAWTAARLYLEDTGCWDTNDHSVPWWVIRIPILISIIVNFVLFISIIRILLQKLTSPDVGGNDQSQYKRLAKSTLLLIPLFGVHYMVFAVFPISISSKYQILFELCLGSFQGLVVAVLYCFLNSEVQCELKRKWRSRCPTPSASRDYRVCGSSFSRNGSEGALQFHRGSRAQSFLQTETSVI
In words: Agonist activity at human VIPR2 expressed in CHOK1 cells assessed as intracellular cAMP accumulation after 60 mins by PathHunter assay. Format: functional, cell-based. Background: Cyclic AMP is a second messenger, typically raised through Gs and lowered through Gi signalling.

Assay [2] deals with T2, Vasoactive intestinal polypeptide receptor 1 (Homo sapiens, UniProt P32241).
T2 sequence (P32241 whole entry): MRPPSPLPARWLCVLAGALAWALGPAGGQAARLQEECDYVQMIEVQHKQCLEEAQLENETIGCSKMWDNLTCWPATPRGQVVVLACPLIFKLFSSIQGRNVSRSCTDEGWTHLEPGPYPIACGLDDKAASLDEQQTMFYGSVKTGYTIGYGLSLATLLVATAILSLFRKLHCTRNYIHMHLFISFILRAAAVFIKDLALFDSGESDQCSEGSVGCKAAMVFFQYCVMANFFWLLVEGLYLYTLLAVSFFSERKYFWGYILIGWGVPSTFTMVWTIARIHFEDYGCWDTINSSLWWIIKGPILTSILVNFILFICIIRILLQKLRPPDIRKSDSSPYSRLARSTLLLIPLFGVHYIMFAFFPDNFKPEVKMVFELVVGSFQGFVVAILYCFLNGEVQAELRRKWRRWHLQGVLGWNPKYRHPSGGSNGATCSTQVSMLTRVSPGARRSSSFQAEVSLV
The experiment in a line: Agonist activity at human VIPR1 expressed in CHOK1 cells assessed as intracellular cAMP accumulation after 60 mins by PathHunter assay. The assay is classed as functional, cell-based.

For the molecule `CC(=O)N[C@@H](Cc1cnc[nH]1)C(=O)N[C@H]1CCC[C@@H]1C(=O)N[C@@H](CC(=O)O)C(=O)N[C@@H](C)C(=O)N[C@H]1CCC[C@@H]1C(=O)N[C@@H](Cc1ccccc1)C(=O)N[C@H](C(=O)N[C@@H](CCC(=O)O)C(=O)N[C@H]1CCC[C@@H]1C(=O)NC(CC(=O)N[C@H](C(=O)N[C@@H](CCCCN)C(=O)N[C@@H](CC(C)C)C(=O)N[C@@H](CCCNC(=N)N)C(=O)N[C@@H](CCCCN)C(=O)N[C@@H](CCC(N)=O)C(=O)NC(CC(=O)N[C@@H](C)C(=O)N[C@@H](C)C(=O)N[C@H]1CNC[C@@H]1C(=O)N[C@@H](CCCCN)C(=O)N[C@@H](Cc1ccc(O)cc1)C(=O)N[C@H]1CCC[C@@H]1C(=O)N[C@@H](CC(N)=O)C(=O)N[C@@H](CC(=O)O)C(=O)N[C@@H](CC(C)C)C(=O)NC(CCCCN)CC(=O)N[C@@H](CCCCN)C(=O)NCC(=O)NCCC(=O)N[C@H](C(=O)O)[C@@H](C)O)CC(C)C)[C@@H](C)O)Cc1ccc(O)cc1)[C@@H](C)O` (stereo partly drawn) (Ac-H[X1]DA[X1]FTE[X1][ξβ3hY]TKLRKQ[ξβ3hL]AA[X2]KY[X1]NDL[ξβ3hK]KG[βAla]T-OH), the values for the EC50 in assay [1] and in assay [2] were 1.17 nM and 785 nM, respectively.
On the same counts, the results for `CC(=O)N[C@@H](Cc1cnc[nH]1)C(=O)N[C@H]1CCC[C@@H]1C(=O)N[C@@H](CC(=O)O)C(=O)N[C@@H](C)C(=O)N[C@H]1CCC[C@@H]1C(=O)N[C@@H](Cc1ccccc1)C(=O)N[C@H](C(=O)N[C@@H](CCC(=O)O)C(=O)N[C@H]1CCC[C@@H]1C(=O)NC(CC(=O)N[C@H](C(=O)N[C@@H](CCCCN)C(=O)N[C@@H](CC(C)C)C(=O)N[C@@H](CCCNC(=N)N)C(=O)N[C@@H](CCCCN)C(=O)NCCC(=O)N[C@@H](CC(C)C)C(=O)N[C@@H](C)C(=O)N[C@@H](C)C(=O)N[C@H]1CNC[C@@H]1C(=O)N[C@@H](CCCCN)C(=O)N[C@@H](Cc1ccc(O)cc1)C(=O)N[C@H]1CCC[C@@H]1C(=O)N[C@@H](CC(N)=O)C(=O)N[C@@H](CC(=O)O)C(=O)N[C@@H](CC(C)C)C(=O)NC(CCCCN)CC(=O)N[C@@H](CCCCN)C(=O)NCC(=O)NCCC(=O)N[C@H](C(=O)O)[C@@H](C)O)[C@@H](C)O)Cc1ccc(O)cc1)[C@@H](C)O` (stereo partly drawn) (Ac-H[X1]DA[X1]FTE[X1][ξβ3hY]TKLRK[βAla]LAA[X2]KY[X1]NDL[ξβ3hK]KG[βAla]T-OH) are 1.02 nM and over 1000 nM.
With `CC(=O)N[C@@H](Cc1cnc[nH]1)C(=O)N[C@H]1CCC[C@@H]1C(=O)N[C@@H](CC(=O)O)C(=O)N[C@@H](C)C(=O)N[C@H]1CCC[C@@H]1C(=O)N[C@@H](Cc1ccccc1)C(=O)N[C@H](C(=O)N[C@@H](CCC(=O)O)C(=O)N[C@H]1CCC[C@@H]1C(=O)NC(CC(=O)N[C@H](C(=O)N[C@@H](CCCCN)C(=O)N[C@@H](CC(C)C)C(=O)N[C@@H](CCCNC(=N)N)C(=O)NC(CCCCN)CC(=O)N[C@@H](CCC(N)=O)C(=O)N[C@@H](CC(C)C)C(=O)N[C@@H](C)C(=O)N[C@@H](C)C(=O)N[C@H]1CNC[C@@H]1C(=O)N[C@@H](CCCCN)C(=O)N[C@@H](Cc1ccc(O)cc1)C(=O)N[C@H]1CCC[C@@H]1C(=O)N[C@@H](CC(N)=O)C(=O)N[C@@H](CC(=O)O)C(=O)N[C@@H](CC(C)C)C(=O)NC(CCCCN)CC(=O)N[C@@H](CCCCN)C(=O)NCC(=O)NCCC(=O)N[C@H](C(=O)O)[C@@H](C)O)[C@@H](C)O)Cc1ccc(O)cc1)[C@@H](C)O` (stereo partly drawn) (Ac-H[X1]DA[X1]FTE[X1][ξβ3hY]TKLR[ξβ3hK]QLAA[X2]KY[X1]NDL[ξβ3hK]KG[βAla]T-OH), the EC50 in assay [1] is over 1000 nM; in assay [2], 461 nM.
Regarding `CC(=O)N[C@@H](Cc1cnc[nH]1)C(=O)N[C@H]1CCC[C@@H]1C(=O)N[C@@H](CC(=O)O)C(=O)N[C@@H](C)C(=O)N[C@H](CC(=O)N[C@@H](Cc1ccccc1)C(=O)N[C@H](C(=O)N[C@@H](CCC(=O)O)C(=O)N[C@@H](CC(N)=O)CC(=O)N[C@@H](Cc1ccc(O)cc1)C(=O)N[C@H](C(=O)N[C@@H](CCCCN)C(=O)N[C@@H](CC(C)C)C(=O)N[C@@H](CCCNC(=N)N)C(=O)N[C@@H](CCCCN)C(=O)N[C@@H](CCC(N)=O)C(=O)N[C@@H](CC(C)C)C(=O)N[C@@H](C)C(=O)N[C@@H](C)C(=O)N[C@H]1CNC[C@@H]1C(=O)N[C@@H](CCCCN)C(=O)N[C@@H](Cc1ccc(O)cc1)C(=O)N[C@H]1CCC[C@@H]1C(=O)N[C@@H](CC(N)=O)C(=O)N[C@@H](CC(=O)O)C(=O)N[C@@H](CC(C)C)C(=O)NC(CCCCN)CC(=O)N[C@@H](CCCCN)C(=O)NCC(=O)NCCC(=O)N[C@H](C(=O)O)[C@@H](C)O)[C@@H](C)O)[C@@H](C)O)C(C)C` (stereo partly drawn) (Ac-H[X1]DA[β3hV]FTE[β3hN]YTKLRKQLAA[X2]KY[X1]NDL[ξβ3hK]KG[βAla]T-OH), the 50% effective concentration (EC50) in assay [1] amounted to 0.859 nM; in assay [2], 1420 nM.
On the same counts, the results for `CC(=O)N[C@@H](Cc1cnc[nH]1)C(=O)N[C@H]1CCC[C@@H]1C(=O)N[C@@H](CC(=O)O)C(=O)N[C@@H](C)C(=O)NC(CC(=O)N[C@@H](Cc1ccccc1)C(=O)N[C@H](C(=O)N[C@@H](CCC(=O)O)C(=O)N[C@@H](CC(N)=O)C(=O)N[C@@H](Cc1ccc(O)cc1)C(=O)N[C@H](C(=O)N[C@@H](CCCCN)C(=O)N[C@@H](CC(C)C)C(=O)NC(CCCNC(=N)N)CC(=O)N[C@@H](CCCCN)C(=O)N[C@@H](CCC(N)=O)C(=O)N[C@@H](CC(C)C)C(=O)N[C@@H](C)C(=O)N[C@@H](C)C(=O)N[C@H]1CNC[C@@H]1C(=O)N[C@@H](CCCCN)C(=O)N[C@@H](Cc1ccc(O)cc1)C(=O)N[C@H]1CCC[C@@H]1C(=O)N[C@@H](CC(N)=O)C(=O)N[C@@H](CC(=O)O)C(=O)N[C@@H](CC(C)C)C(=O)NC(CCCCN)CC(=O)N[C@@H](CCCCN)C(=O)NCC(=O)NCCC(=O)N[C@H](C(=O)O)[C@@H](C)O)[C@@H](C)O)[C@@H](C)O)C(C)C` (stereo partly drawn) (Ac-H[X1]DA[ξβ3hV]FTENYTKL[ξβ3hR]KQLAA[X2]KY[X1]NDL[ξβ3hK]KG[βAla]T-OH) are 1.37 nM and over 1000 nM.
On the same counts, the results for `CC(=O)N[C@@H](Cc1cnc[nH]1)C(=O)N[C@H]1CCC[C@@H]1C(=O)N[C@@H](CC(=O)O)C(=O)N[C@@H](C)C(=O)NC(CC(=O)N[C@@H](Cc1ccccc1)C(=O)N[C@H](C(=O)N[C@@H](CCC(=O)O)C(=O)N[C@@H](CC(N)=O)C(=O)N[C@@H](Cc1ccc(O)cc1)C(=O)N[C@H](C(=O)N[C@@H](CCCCN)C(=O)NC(CC(=O)N[C@@H](CCCNC(=N)N)C(=O)N[C@@H](CCCCN)C(=O)N[C@@H](CCC(N)=O)C(=O)N[C@@H](CC(C)C)C(=O)N[C@@H](C)C(=O)N[C@@H](C)C(=O)N[C@H]1CNC[C@@H]1C(=O)N[C@@H](CCCCN)C(=O)N[C@@H](Cc1ccc(O)cc1)C(=O)N[C@H]1CCC[C@@H]1C(=O)N[C@@H](CC(N)=O)C(=O)N[C@@H](CC(=O)O)C(=O)N[C@@H](CC(C)C)C(=O)NC(CCCCN)CC(=O)N[C@@H](CCCCN)C(=O)NCC(=O)NCCC(=O)N[C@H](C(=O)O)[C@@H](C)O)CC(C)C)[C@@H](C)O)[C@@H](C)O)C(C)C` (stereo partly drawn) (Ac-H[X1]DA[ξβ3hV]FTENYTK[ξβ3hL]RKQLAA[X2]KY[X1]NDL[ξβ3hK]KG[βAla]T-OH) are 1.33 nM and 1420 nM.
On the same counts, the results for `CC(=O)N[C@@H](Cc1cnc[nH]1)C(=O)N[C@H]1CCC[C@@H]1C(=O)N[C@@H](CC(=O)O)C(=O)N[C@@H](C)C(=O)NC(CC(=O)N[C@@H](Cc1ccccc1)C(=O)N[C@H](C(=O)N[C@@H](CCC(=O)O)C(=O)N[C@@H](CC(N)=O)CC(=O)N[C@@H](Cc1ccc(O)cc1)C(=O)N[C@H](C(=O)N[C@@H](CCCCN)C(=O)N[C@@H](CC(C)C)C(=O)N[C@@H](CCCNC(=N)N)C(=O)N[C@@H](CCCCN)C(=O)N[C@@H](CCC(N)=O)C(=O)NC(CC(=O)N[C@@H](C)C(=O)N[C@@H](C)C(=O)N[C@H]1CNC[C@@H]1C(=O)N[C@@H](CCCCN)C(=O)N[C@@H](Cc1ccc(O)cc1)C(=O)N[C@H]1CCC[C@@H]1C(=O)N[C@@H](CC(N)=O)C(=O)N[C@@H](CC(=O)O)C(=O)N[C@@H](CC(C)C)C(=O)NC(CCCCN)CC(=O)N[C@@H](CCCCN)C(=O)NCC(=O)NCCC(=O)N[C@H](C(=O)O)[C@@H](C)O)CC(C)C)[C@@H](C)O)[C@@H](C)O)C(C)C` (stereo partly drawn) (Ac-H[X1]DA[ξβ3hV]FTE[β3hN]YTKLRKQ[ξβ3hL]AA[X2]KY[X1]NDL[ξβ3hK]KG[βAla]T-OH) are 1.26 nM and over 1000 nM.

As usually defined, the EC50 is the concentration giving half of the maximal effect.
